The text below walks through data of ChEMBL document CHEMBL1136370, “Structure-activity relationship on human serum paraoxonase (PON1) using substrate analogues and inhibitors” (Bioorg Med Chem Lett, 2003).

Data set [1] addresses T1, Serum paraoxonase/arylesterase 1 (Homo sapiens, UniProt P27169). The experiment in a line: Inhibitory activity against human serum paraoxonase (PON1); Not active.
Another data set concerns PON1. The experiment in a line: Time taken for 50% to be consumed by serum PON1 was determined. Format: ADME. The settings on record: human.
Data set [2] can be described thus: Time taken for 50% to be consumed by serum PON1; NH is Not hydrolysed. It is filed as ADME. The following applies: human.
Data set [3] concerns the target T1, Serum paraoxonase/arylesterase 1. The experiment in a line: Inhibitory activity against human serum paraoxonase (PON1).

T1 sequence (P27169 whole entry): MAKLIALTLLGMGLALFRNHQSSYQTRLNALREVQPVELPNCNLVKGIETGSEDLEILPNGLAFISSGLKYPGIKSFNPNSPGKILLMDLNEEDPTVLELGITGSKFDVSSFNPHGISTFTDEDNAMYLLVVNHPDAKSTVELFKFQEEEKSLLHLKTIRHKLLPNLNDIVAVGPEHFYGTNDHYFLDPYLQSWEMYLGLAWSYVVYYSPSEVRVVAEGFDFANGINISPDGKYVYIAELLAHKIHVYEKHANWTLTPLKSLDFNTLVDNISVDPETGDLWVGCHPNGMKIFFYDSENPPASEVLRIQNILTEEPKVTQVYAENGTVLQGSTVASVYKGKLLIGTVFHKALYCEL

A word on the IC50: it is the concentration at which inhibition is half-maximal. High values mean a need for much substance, low ones inhibition by little substance. Broadly, the half-life is the time needed for the level to fall by half in the phase considered. Read a low half-life as rapid decline. For the compound `CC(=O)Oc1ccc([N+](=O)[O-])cc1` [4-NITROPHENYL ACETATE], the IC50 result in data set [1] was “Not Active”. This compound yielded a half-life in the data set on PON1 of 3.5 min.
As to `O=[N+]([O-])c1ccc(OP(=O)(O)O)cc1` [p-NITROPHENYLPHOSPHATE], in data set [2], the T1/2 entry is “Not hydrolysed”. In data set [3], this compound yielded an IC50 of 18.5 mM.
`CCOP(=O)(OCC)Oc1ccc([N+](=O)[O-])cc1` [PARAOXON]: the IC50 entry in data set [1] is on record as “Not Active”. This compound also yielded a half-life with PON1 of 1460 min.
On to `CCOP(=O)(OCC)Oc1ccccc1` [PHOSPHORIC ACID DIETHYL ESTER PHENYL ESTER], for which the T1/2 result in data set [2] is on record as “Not hydrolysed”. For the same compound, inhibition in data set [3] was half-maximal at 3.27 mM (IC50).
Consider `CC(=O)Oc1ccccc1` [ACETIC ACID PHENYL ESTER], for which the IC50 entry in data set [1] is “Not Active”. The half-life with PON1 came out at 1.5 min.
`COc1ccc(OC(C)=O)cc1`: the IC50 entry in data set [1] is reported as “Not Active”. The compound further gave a half-life in the data set on PON1 of 20 min.
`O=P(O)(O)Oc1ccccc1` [PHENYL DIHYDROGEN PHOSPHATE]: in data set [2], the T1/2 result is given as “Not hydrolysed”. Moreover, the IC50 in data set [3] is 3.25 mM.
In the case of `CCOP(=O)(OCC)Oc1ccc(N)cc1`, the T1/2 result in data set [2] is reported as “Not hydrolysed”. This compound registered a 50% inhibitory concentration (IC50) in data set [3] of 1.28 mM.
In the case of `CC(=O)Oc1ccc(N)cc1`, the 50% inhibitory concentration (IC50) result in data set [1] is reported as “Not Active”. In the data set on PON1, this compound had a half-life of 20 min.
